Results from patent US5668133A, “Ophthalmic compositions comprising emedastine and methods for their use” (priority 1995, dated 1997).

What was measured:
[1] = test system: passive anaphylaxis in guinea pig conjunctiva; test: passive conjunctival anaphylaxis, i.v. antigen challenge; type: in vivo
Procedure: (§1) Male Dunkin Hartley Viral Antibody Free outbred guinea pigs (Charles River Labs, Portage, Mich.), weighing approximately 250-350 grams (6/group) were injected intravenously (i.v.) via the marginal ear vein with 1.0 mL of Evans Blue dye (1.0 mg/mL). Forty-five (45) minutes post dye injection, 20 μL of test compound or saline vehicle was applied topically to one eye of each experimental animal. Thirty minutes following topical drug application, the guinea pigs were anesthetized and challenged subconjunctivally with histamine (300 ng/10 μL). Responses were quantitated as described by Yanni et al. in Int. Arch. Allergy Immunol., 101:102-106 (1993). Response scores from the treated groups were then compared with scores obtained in the saline-treated group using Dunnett's t test (Dunnett C. W., "A multiple comparison procedure for comparing treatments with a control." J. Am. Stat. Assoc. 50:1096-1121(1955)). Regression analysis was used to determine relative potency (Bliss, C. and E. Gjorgy. In Vitamin Methods, Vol. 2, pp. 445-610, Academic Press, Inc., New York, 1951.).
Emedastine difumarate was evaluated for its ability to inhibit a passive conjunctival immediate hypersensitivity response following topical ocular administration.
Guinea pigs (5-8/group) were passively sensitized with anti-ovalbumin serum injected subconjunctivally in one eye. Twenty-four hours after passive sensitization, ovalbumin (OA) was administered either i.v. or topically to the eye.
The allergic response following i.v. antigen challenge was assessed as follows: thirty minutes prior to challenge, animals received 20 μL of emedastine difumarate or saline applied topically to the eye. Guinea pigs were then challenged i.v. via the marginal ear vein with 1.0 mL of a solution containing 100 μg of OA and 1 mg of Evans Blue dye. Responses were quantitated as previously described in Example 2.

[2] = test system: histamine-induced vascular permeability in guinea pig conjunctiva; test: histamine-induced vascular permeability in guinea pig conjunctiva, topical ocular pretreatment; type: in vivo, guinea pig (Male Dunkin Hartley); conditions: for Wheal Area × Intensity: 1 min pretreatment
Procedure: The topical ocular antihistaminic effect of emedastine difumarate was assessed in a model of histamine induced vascular permeability in guinea pig conjunctiva. The potency of emedastine difumarate in this model was then compared with those of reference antihistamines.
as §1, with “Thirty minutes following topical drug application, the guinea pigs were anesthetized and challenged subconjunctivally with histamine (300 ng/10 μL).” left out

[3] = i.v. antigen challenge, 30 min before challenge
[4] = topically 1 minute before histamine challenge

Q: `CCOCCn1c(N2CCCN(C)CC2)nc2ccccc21` [Emedastine Difumarate, 1-(2-ethoxyethyl)-2-(4-methyl-1-homopiperazinyl)-benzimidazole] was tested. Which “reduction of the allergic response” value ([1]; 0.001% and 0.01% solutions, 30 minutes before i.v. antigen challenge) did it give?
A: significant reductions of the allergic response

Q: What about the “% Change” value ([1]; i.v. antigen challenge, 0.0001 wt %, 30 min before challenge) of the same compound?
A: -41%

Q: And the “% Change” value ([1]; i.v. antigen challenge, 0.001 wt %, 30 min before challenge)?
A: -66%

Q: What about the “% Change” value ([1]; i.v. antigen challenge, 0.01 wt %, 30 min before challenge) of the same compound?
A: -96%

Q: And the ED50 [1, 3]?
A: 0.00022 wt %

Q: What about the “ED50 (text)” value [1, 3] of the same compound?
A: 0.00022%

Q: What about the “Wheal Area × Intensity” value ([2]; 0.0001 wt %, antazoline experiment (NaCl 285 ± 19)) of the same compound?
A: 159 ± 31

Q: What about the “Wheal Area × Intensity” value ([2]; 0.0001 wt %, ketotifen/pheniramine experiment (NaCl 276 ± 10)) of the same compound?
A: 159 ± 26

Q: What about the “Wheal Area × Intensity” value ([2]; 0.0001 wt %, pyrilamine experiment (NaCl 308 ± 20)) of the same compound?
A: 166 ± 14

Q: What about the “Wheal Area × Intensity” value ([2]; 0.001 wt %, antazoline experiment (NaCl 285 ± 19)) of the same compound?
A: 109 ± 14

Q: And the “Wheal Area × Intensity” value ([2]; 0.001 wt %, ketotifen/pheniramine experiment (NaCl 276 ± 10))?
A: 141 ± 38

Q: What about the “Wheal Area × Intensity” value ([2]; 0.001 wt %, pyrilamine experiment (NaCl 308 ± 20)) of the same compound?
A: 104 ± 20

Q: And the “Wheal Area × Intensity” value ([2]; 0.01 wt %, antazoline experiment (NaCl 285 ± 19))?
A: 55 ± 12

Q: And the “Wheal Area × Intensity” value ([2]; 0.01 wt %, ketotifen/pheniramine experiment (NaCl 276 ± 10))?
A: 45 ± 18

Q: And the “Wheal Area × Intensity” value ([2]; 0.01 wt %, levocabastine experiment (NaCl 336 ± 78))?
A: 26 ± 27

Q: And the “Wheal Area × Intensity” value ([2]; 0.01 wt %, pyrilamine experiment (NaCl 308 ± 20))?
A: 57 ± 16

Q: And the “ED50 (text)” value ([2]; 1 minute prior to histamine challenge)?
A: 0.0002%

Q: What about the “inhibition of the vascular permeability response” value ([2]; 1 minute, 30 minutes, 2, 4 or 8 hours prior to challenge) of the same compound?
A: inhibited in concentration-dependent fashion

Q: What about the “Wheal Area × Intensity (X ± S.D.)” value ([2]; 30 min pretreatment, 0.000001 wt %, clemastine experiment (NaCl 350 ± 31)) of the same compound?
A: 265 ± 35

Q: And the “Wheal Area × Intensity (X ± S.D.)” value ([2]; 30 min pretreatment, 0.000006 wt %, ketotifen experiment (NaCl 214 ± 41))?
A: 154 ± 62

Q: What about the “Wheal Area × Intensity (X ± S.D.)” value ([2]; 30 min pretreatment, 0.000006 wt %, pyrilamine experiment (NaCl 194 ± 41)) of the same compound?
A: 136 ± 42

Q: What about the “Wheal Area × Intensity (X ± S.D.)” value ([2]; 30 min pretreatment, 0.00001 wt %, antazoline experiment (NaCl 287 ± 20)) of the same compound?
A: 197 ± 57

Q: What about the “Wheal Area × Intensity (X ± S.D.)” value ([2]; 30 min pretreatment, 0.00001 wt %, brompheniramine experiment (NaCl 219 ± 20)) of the same compound?
A: 191 ± 48

Q: What about the “Wheal Area × Intensity (X ± S.D.)” value ([2]; 30 min pretreatment, 0.00001 wt %, chlorpheniramine experiment (NaCl 217 ± 35)) of the same compound?
A: 161 ± 68

Q: And the “Wheal Area × Intensity (X ± S.D.)” value ([2]; 30 min pretreatment, 0.00001 wt %, clemastine experiment (NaCl 350 ± 31))?
A: 165 ± 30

Q: And the “Wheal Area × Intensity (X ± S.D.)” value ([2]; 30 min pretreatment, 0.00001 wt %, diphenhydramine experiment (NaCl 214 ± 34))?
A: 163 ± 32

Q: And the “Wheal Area × Intensity (X ± S.D.)” value ([2]; 30 min pretreatment, 0.00001 wt %, levocabastine/pheniramine experiment (NaCl 252 ± 30))?
A: 191 ± 27

Q: What about the “Wheal Area × Intensity (X ± S.D.)” value ([2]; 30 min pretreatment, 0.00006 wt %, ketotifen experiment (NaCl 214 ± 41)) of the same compound?
A: 91 ± 26

Q: What about the “Wheal Area × Intensity (X ± S.D.)” value ([2]; 30 min pretreatment, 0.00006 wt %, pyrilamine experiment (NaCl 194 ± 41)) of the same compound?
A: 75 ± 22

Q: What about the “Wheal Area × Intensity (X ± S.D.)” value ([2]; 30 min pretreatment, 0.0001 wt %, antazoline experiment (NaCl 287 ± 20)) of the same compound?
A: 65 ± 32

Q: And the “Wheal Area × Intensity (X ± S.D.)” value ([2]; 30 min pretreatment, 0.0001 wt %, brompheniramine experiment (NaCl 219 ± 20))?
A: 104 ± 47

Q: And the “Wheal Area × Intensity (X ± S.D.)” value ([2]; 30 min pretreatment, 0.0001 wt %, chlorpheniramine experiment (NaCl 217 ± 35))?
A: 112 ± 58

Q: What about the “Wheal Area × Intensity (X ± S.D.)” value ([2]; 30 min pretreatment, 0.0001 wt %, clemastine experiment (NaCl 350 ± 31)) of the same compound?
A: 70 ± 27

Q: And the “Wheal Area × Intensity (X ± S.D.)” value ([2]; 30 min pretreatment, 0.0001 wt %, diphenhydramine experiment (NaCl 214 ± 34))?
A: 98 ± 22

Q: And the “Wheal Area × Intensity (X ± S.D.)” value ([2]; 30 min pretreatment, 0.0001 wt %, levocabastine/pheniramine experiment (NaCl 252 ± 30))?
A: 137 ± 24

Q: And the “Wheal Area × Intensity (X ± S.D.)” value ([2]; 30 min pretreatment, 0.0006 wt %, ketotifen experiment (NaCl 214 ± 41))?
A: 16 ± 14

Q: What about the “Wheal Area × Intensity (X ± S.D.)” value ([2]; 30 min pretreatment, 0.0006 wt %, pyrilamine experiment (NaCl 194 ± 41)) of the same compound?
A: 6 ± 7

Q: What about the “Wheal Area × Intensity (X ± S.D.)” value ([2]; 30 min pretreatment, 0.001 wt %, antazoline experiment (NaCl 287 ± 20)) of the same compound?
A: 4 ± 4

Q: And the “Wheal Area × Intensity (X ± S.D.)” value ([2]; 30 min pretreatment, 0.001 wt %, brompheniramine experiment (NaCl 219 ± 20))?
A: 8 ± 9

Q: What about the “Wheal Area × Intensity (X ± S.D.)” value ([2]; 30 min pretreatment, 0.001 wt %, chlorpheniramine experiment (NaCl 217 ± 35)) of the same compound?
A: 18 ± 23

Q: What about the “Wheal Area × Intensity (X ± S.D.)” value ([2]; 30 min pretreatment, 0.001 wt %, clemastine experiment (NaCl 350 ± 31)) of the same compound?
A: 6 ± 7

Q: And the “Wheal Area × Intensity (X ± S.D.)” value ([2]; 30 min pretreatment, 0.001 wt %, diphenhydramine experiment (NaCl 214 ± 34))?
A: 12 ± 19

Q: And the “Wheal Area × Intensity (X ± S.D.)” value ([2]; 30 min pretreatment, 0.001 wt %, levocabastine/pheniramine experiment (NaCl 252 ± 30))?
A: 7 ± 9

Q: And the Potency ([2]; 30 min pretreatment, relative to emedastine difumarate = 1.0, (95% Confidence limits))?
A: 1.0

Q: What about the “potency compared to ketotifen” value ([2]; 30 minute treatment interval) of the same compound?
A: equipotent

Q: What about the “times more potent than brompheniramine” value ([2]; 30 minute treatment interval) of the same compound?
A: 7 times

Q: What about the “times more potent than chlorpheniramine” value ([2]; 30 minute treatment interval) of the same compound?
A: 7 times

Q: And the “times more potent than clemastine” value ([2]; 30 minute treatment interval)?
A: 10 times

Q: And the “times more potent than diphenhydramine” value ([2]; 30 minute treatment interval)?
A: 3333 times

Q: And the “times more potent than levocabastine” value ([2]; 30 minute treatment interval)?
A: 100 times

Q: And the “times more potent than pyrilamine” value ([2]; 30 minute treatment interval)?
A: 10 times

Q: And the “times more potent than pheniramine” value ([2]; 30 minute treatment interval, approximate, lack of parallelism)?
A: approximately 357 times

Q: And the “ED50 (text)” value ([2]; 30 minutes prior to histamine challenge)?
A: 0.000035%

Q: And the “ED50 (text)” value ([2]; 2 hours prior to histamine challenge)?
A: 0.0029%

Q: What about the “ED50 (text)” value ([2]; 4 hours prior to histamine challenge) of the same compound?
A: 0.019%

Q: And the “ED50 (text)” value ([2]; 8 hours prior to histamine challenge)?
A: 0.19%

Q: What about the ED50 ([2]; pretreatment 1 min) of the same compound?
A: 0.0002 wt %

Q: And the “Percent Change” value ([2]; pretreatment 1 min, 0.0001 wt %)?
A: -44%

Q: And the “Percent Change” value ([2]; pretreatment 1 min, 0.001 wt %)?
A: -62%

Q: And the “Percent Change” value ([2]; pretreatment 1 min, 0.01 wt %)?
A: -81%

Q: What about the ED50 ([2]; pretreatment 30 min) of the same compound?
A: 0.000035 wt %

Q: And the “Percent Change” value ([2]; pretreatment 30 min, 0.000006 wt %)?
A: -28%

Q: And the “Percent Change” value ([2]; pretreatment 30 min, 0.00006 wt %)?
A: -58%

Q: And the “Percent Change” value ([2]; pretreatment 30 min, 0.0006 wt %)?
A: -93%

Q: And the ED50 ([2]; pretreatment 2 hr)?
A: 0.0029 wt %

Q: What about the “Percent Change” value ([2]; pretreatment 2 hr, 0.001 wt %) of the same compound?
A: -35%

Q: What about the “Percent Change” value ([2]; pretreatment 2 hr, 0.005 wt %) of the same compound?
A: -53%

Q: What about the “Percent Change” value ([2]; pretreatment 2 hr, 0.01 wt %) of the same compound?
A: -72%

Q: What about the ED50 ([2]; pretreatment 4 hr) of the same compound?
A: 0.019 wt %

Q: What about the “Percent Change” value ([2]; pretreatment 4 hr, 0.001 wt % (first line)) of the same compound?
A: -9%

Q: What about the “Percent Change” value ([2]; pretreatment 4 hr, 0.1 wt %) of the same compound?
A: -84%

Q: What about the “Percent Change” value ([2]; pretreatment 4 hr, 1.0 wt %) of the same compound?
A: -95%

Q: And the ED50 ([2]; pretreatment 8 hr)?
A: 0.19 wt %

Q: And the “Percent Change” value ([2]; pretreatment 8 hr, 0.01 wt %)?
A: -5%

Q: What about the “Percent Change” value ([2]; pretreatment 8 hr, 0.05 wt %) of the same compound?
A: -33%

Q: And the “Percent Change” value ([2]; pretreatment 8 hr, 0.1 wt %)?
A: -43%

Q: What about the “Percent Change” value ([2]; pretreatment 8 hr, 0.5 wt %) of the same compound?
A: -66%

Q: And the “Percent Change” value ([2]; pretreatment 8 hr, 1.0 wt %)?
A: -71%

Q: And the “onset and duration of action” value ([2]; topical ocular administration)?
A: rapid onset and an acceptable duration of action

Q: What about the “times more potent than antazoline” value ([2]; topical, 0.5 h) of the same compound?
A: ~5813 times

Q: And the “potency compared to pyrilamine” value [2, 4]?
A: approximately equipotent

Q: What about the “times more potent than antazoline” value [2, 4] of the same compound?
A: 17 times

Q: What about the “times more potent than ketotifen” value [2, 4] of the same compound?
A: 3 times

Q: And the “times more potent than pheniramine” value [2, 4]?
A: 8 times
